Reference: US20210100872A1, “Pharmacological Formulation Comprising Cyclo (HIS-PRO) As Effective Ingredient For Preventing Or Treating Diabetes Mellitus” (Novmetapharma Co., Ltd., priority 2017, published 2021)

Legend:
Type in all cases: in vivo, human
[1] = test system: patients with type 2 diabetes mellitus; assay: Change in concentration of HbA1c, 12-week clinical trial; conditions: for concentration of HbA1c, Average / concentration of HbA1c, Change Value, Average: capsule once a day; for concentration of HbA1c, Change Value, Average: From Week 0 to Week 12
Protocol: (§1) We conducted a clinical trial designed as randomized, placebo-controlled, double-blind, and two-way crossover on drug interaction in patients with type 2 diabetes mellitus. The clinical trial was conducted for 149 patients over a total of 16 weeks, in which the screening period was 2 weeks, the treatment period was 12 weeks, and the period of the evaluation of safety and follow-up was 2 weeks.
(§2) In the screening stage, 64 subjects were selected from 149 participants, and the subjects who met the selection criteria were fasted for 2 hours before and after breakfast each day and subjected to a 2-week evaluation process of measuring and recording blood glucose levels. In the treatment stage, capsules containing placebo or CHP with different doses were randomly administered to 64 selected subjects once a day for 12 consecutive weeks.
(§3) In the above experiment, a capsule containing CHP (cyclo-hispro) with a different dose or a placebo corresponding thereto was used, and each subject received a two-week dose (18 capsules =14 +4) at one visit and was instructed to take 1 capsule before bedtime every day. In this case, the anti-diabetic drugs and other prescribed drugs currently being used were continuously taken. Each subject was assigned at the same rate as follows and administered with a placebo or a compound with a different dose, respectively. • Administration Group A: 3 mg of CHP+23 mg of zinc—16 subjects • Administration Group B: 9 mg of CHP+23 mg of zinc—16 subjects • Administration Group C: 15 mg of CHP+23 mg of zinc—16 subjects • Administration Group D: placebo (control)—16 subjects
The present inventors observed the change in concentration of HbA1c during the 12-week dosing period. Since the blood glucose level measured at one time point can change due to various factors, the change in glycated hemoglobin (HbA1c) was checked for the purpose of determining the pattern of long-term glycemic control, and the results are shown in Table 1 and FIG. 1.

[2] = Change in body weight, 12-week clinical trial
Protocol: as §1, §2
(§4) In the above experiment, a capsule containing CHP (cyclo-hispro) with a different dose or a placebo corresponding thereto was used, and each subject received a two-week dose (18 capsules =14 +4) at one visit and was instructed to take 1 capsule before bedtime every day. In this case, the anti-diabetic drugs and other prescribed drugs currently being used were continuously taken. […]

[3] = Body mass index (BMI), 12-week clinical trial; conditions: capsule once a day, From Week 0 to Week 12
Protocol: as §1, §2, §3
The present inventors confirmed the improvement of body mass index (BMI) and the improvement of leptin resistance, and the results are shown in Tables 3 and 4.

[4] = test system: patients with type 2 diabetes mellitus; assay: Plasma leptin level (leptin resistance), 12-week clinical trial; conditions: Administration Group A: 3 mg of CHP+23 mg of zinc, capsule once a day; From Week 0 to Week 12
Protocol: as §1, §2, §4

[5] = Administration Group A: 3 mg of CHP+23 mg of zinc
[6] = Administration Group B: 9 mg of CHP+23 mg of zinc
[7] = Administration Group C: 15 mg of CHP+23 mg of zinc

O=C1NC(Cc2c[nH]cn2)C(=O)N2CCCC12 (centres unmarked) [CHP, cyclo(his-pro)]
concentration of HbA1c, Average ([1]; Administration Group A: 3 mg of CHP+23 mg of zinc, Baseline (Week 0)): 8.25% | concentration of HbA1c, Change Value, Average [1, 5]: −0.21% | concentration of HbA1c, Average ([1]; Administration Group B: 9 mg of CHP+23 mg of zinc, Baseline (Week 0)): 8.06% | concentration of HbA1c, Change Value, Average [1, 6]: −0.17% | concentration of HbA1c, Average ([1]; Administration Group C: 15 mg of CHP+23 mg of zinc, Baseline (Week 0)): 8.49% | concentration of HbA1c, Change Value, Average [1, 7]: −0.43% | concentration of HbA1c, Average ([1]; Administration Group C: 15 mg of CHP+23 mg of zinc, Week 12): 8.08% | level of HbA1c over time (FIG. 1) ([1]; Administration Group C: 15 mg of CHP+23 mg of zinc, week 0 to week 12): reduced consistently until week 8, and then there was little change in the level of HbA1c between week 8 and week 12 | body weight, Change Value, Average ([2]; Administration Group A: 3 mg of CHP+23 mg of zinc, capsule once a day, From Week 0 to Week 12): -0.73 kg | weight gain compared to the control ([2]; all patient groups receiving CHP (3, 9, 15 mg+23 mg of zinc), 12 weeks): less than the control, or the body weight was reduced | body mass index (BMI), Change Value, Average [3, 5]: −0.27 kg/m^2 | body mass index (BMI), Change Value, Average [3, 6]: 0.16 kg/m^2 | body mass index (BMI), Change Value, Average [3, 7]: −0.28 kg/m^2 | plasma leptin level, Change Value, Average [4]: 0.59
